According to publication PMC11149339, “Necessity for higher teicoplanin doses in older adults: a multicenter prospective observational study in China” (BMC Geriatrics, 2024):

Assay: Therapeutic drug monitoring of teicoplanin trough concentration (Cmin) during treatment, LC-MS/MS
Format: in vivo, human
Conditions: for TDM ≤ 7d (teicoplanin trough concentration) / TDM ≥ 15d (teicoplanin trough concentration): median [IQR], LC-MS/MS
Experimental: Teicoplanin (Targocid, Sanofi, Dublin, Ireland) was administered intravenously for 30 min. The prescribed dose regimens were at the discretion of treating physicians, and the recommended regimens were not always followed.
Blood samples (5 mL) were collected from the elbow into ethylenediaminetetraacetic acid-containing Vacutainers® (Becton Dickinson, Milan, Italy) in the morning before teicoplanin administration and after drug withdrawal. Samples were promptly refrigerated and centrifuged at 2500 × g for 10 min before 2 mL of supernatant was preserved at -20 °C for subsequent analysis. Teicoplanin concentrations were determined using liquid chromatography-tandem mass spectrometry. The linear range of the method was 1.0–100.0 mg/L, and the lower limit of quantification was 1.0 mg/L. The relative standard deviation of intra- and inter-batch precision was ≤ 10%.
Teicoplanin concentrations were dynamically monitored. Concentrations at 3, ≤ 7, 8–14, and ≥ 15 days after the first dose and within 2 h of the next scheduled dose were recorded as TDM3d, TDM≤7d, TDM8-14d, and TDM≥15d, respectively. Concentrations at 3, ≤ 7, 8–14, and ≥ 15 days after the last teicoplanin dose (withdrawal) were recorded as TDMw3d, TDMw≤7d, TDMw8-14d, and TDMw≥15d. respectively (Fig. 1a). The Cmin target was ≥ 10 mg/L [6, 7, 23]; a concentration < 10 mg/L was considered suboptimal. Average TDM (TDMa) was defined as the mean Cmin after 3 days of treatment.

[1] = ≤ 7 days after first dose, LR-A + MR-A
[2] = ≤ 7 days after first dose, LR-B + MR-A
[3] = ≤ 7 days after first dose, LR-B + MR-B
[4] = ≤ 7 days after first dose, LR-C + MR-B
[5] = ≤ 7 days after first dose, LR-C + MR-C
[6] = ≥ 15 days after first dose, LR-A + MR-A
[7] = ≥ 15 days after first dose, LR-B + MR-A
[8] = ≥ 15 days after first dose, LR-B + MR-B
[9] = ≥ 15 days after first dose, LR-C + MR-B

target concentration achievement rate (≥ 10 mg/L) (TDM3d, LR-B + MR-B regimen): 50.0%
target concentration achievement rate (≥ 10 mg/L) (TDM3d, LR-C + MR-B regimen): 62.5%
target concentration achievement rate (≥ 10 mg/L) (TDM3d, LR-C + MR-C regimen): 78.6%
target concentration achievement rate (≥ 10 mg/L) (TDM≤7d, LR-A + MR-A regimen): 18.3%
target concentration achievement rate (≥ 10 mg/L) (TDM≤7d, LR-B + MR-A regimen): 24.1%
target concentration achievement rate (≥ 10 mg/L) (TDM≤7d, LR-B + MR-B regimen): 57.2%
target concentration achievement rate (≥ 10 mg/L) (TDM≤7d, LR-C + MR-B regimen): 56.2%
target concentration achievement rate (≥ 10 mg/L) (TDM≤7d, LR-C + MR-C regimen): 85.7%
target concentration achievement rate (≥ 10 mg/L) (TDM≥15d, LR-A + MR-A regimen): 77.8%
target concentration achievement rate (≥ 10 mg/L) (TDM≥15d, LR-B + MR-A regimen): 84.6%
target concentration achievement rate (≥ 10 mg/L) (TDM≥15d, LR-B + MR-B regimen): 100%
target concentration achievement rate (≥ 10 mg/L) (TDM≥15d, LR-C + MR-B regimen): 100%
patients achieving therapeutic concentrations (after 14 days of administration, all patients): more than 80%
patients with TDM 10–20 mg/L ≤ 7d, N (%) [1]: 6(12.2)
patients with TDM < 10 mg/L ≤ 7d, N (%) [1]: 40(81.7)
patients with TDM > 20 mg/L ≤ 7d, N (%) [1]: 3(6.1)
TDM ≤ 7d (teicoplanin trough concentration) (≤ 7 days after first dose, LR-A + MR-A (200 mg once daily, then 200 mg once daily)): 6.4[4.7,8.2] mg/L
patients with TDM 10–20 mg/L ≤ 7d, N (%) [2]: 10(18.5)
patients with TDM < 10 mg/L ≤ 7d, N (%) [2]: 41(75.9)
patients with TDM > 20 mg/L ≤ 7d, N (%) [2]: 3(5.6)
TDM ≤ 7d (teicoplanin trough concentration) (≤ 7 days after first dose, LR-B + MR-A (400 mg once daily, then 200 mg once daily)): 7.2[5.5,10.0] mg/L
patients with TDM 10–20 mg/L ≤ 7d, N (%) [3]: 2(28.6)
patients with TDM < 10 mg/L ≤ 7d, N (%) [3]: 3(42.8)
patients with TDM > 20 mg/L ≤ 7d, N (%) [3]: 2(28.6)
TDM ≤ 7d (teicoplanin trough concentration) (≤ 7 days after first dose, LR-B + MR-B (400 mg once daily, then 400 mg once daily)): 12.42[8.3,22.0] mg/L
patients with TDM 10–20 mg/L ≤ 7d, N (%) [4]: 9(56.2)
patients with TDM < 10 mg/L ≤ 7d, N (%) [4]: 7(43.8)
patients with TDM > 20 mg/L ≤ 7d, N (%) [4]: 0
TDM ≤ 7d (teicoplanin trough concentration) (≤ 7 days after first dose, LR-C + MR-B (400 mg at 12-h intervals, then 400 mg once daily)): 11.0[7.0,12.6] mg/L
patients with TDM 10–20 mg/L ≤ 7d, N (%) [5]: 8(57.1)
patients with TDM < 10 mg/L ≤ 7d, N (%) [5]: 2(14.3)
patients with TDM > 20 mg/L ≤ 7d, N (%) [5]: 4(28.6)
TDM ≤ 7d (teicoplanin trough concentration) (≤ 7 days after first dose, LR-C + MR-C (400 mg at 12-h intervals, then 400 mg twice daily)): 14.4[12.0,21.2] mg/L
TDM ≤ 7d (teicoplanin trough concentration) (≤ 7 days after first dose, all patients (N = 204), iv): 7.6[5.6,12.2] mg/L
patients having suboptimal concentrations (< 10 mg/L), TDM≤7d (≤ 7 days after first dose, all patients, 93 patients): 66.4%
patients with TDM 10–20 mg/L ≥ 15d, N (%) [6]: 16(59.3)
patients with TDM < 10 mg/L ≥ 15d, N (%) [6]: 6(22.2)
patients with TDM > 20 mg/L ≥ 15d, N (%) [6]: 5(18.5)
TDM ≥ 15d (teicoplanin trough concentration) (≥ 15 days after first dose, LR-A + MR-A (200 mg once daily, then 200 mg once daily)): 12.7[10.1,17.4] mg/L
patients with TDM 10–20 mg/L ≥ 15d, N (%) [7]: 15(57.7)
patients with TDM < 10 mg/L ≥ 15d, N (%) [7]: 4(15.4)
patients with TDM > 20 mg/L ≥ 15d, N (%) [7]: 7(26.9)
TDM ≥ 15d (teicoplanin trough concentration) (≥ 15 days after first dose, LR-B + MR-A (400 mg once daily, then 200 mg once daily)): 15.7[11.9,22.0] mg/L
patients with TDM 10–20 mg/L ≥ 15d, N (%) [8]: 1(50.0)
patients with TDM < 10 mg/L ≥ 15d, N (%) [8]: 0
patients with TDM > 20 mg/L ≥ 15d, N (%) [8]: 1(50.0)
TDM ≥ 15d (teicoplanin trough concentration) (≥ 15 days after first dose, LR-B + MR-B (400 mg once daily, then 400 mg once daily)): 20.3[13.8,20.4] mg/L
patients with TDM 10–20 mg/L ≥ 15d, N (%) [9]: 1(33.3)
patients with TDM < 10 mg/L ≥ 15d, N (%) [9]: 0
patients with TDM > 20 mg/L ≥ 15d, N (%) [9]: 2(66.7)
TDM ≥ 15d (teicoplanin trough concentration) (≥ 15 days after first dose, LR-C + MR-B (400 mg at 12-h intervals, then 400 mg once daily)): 23.0[19.4,28.6] mg/L
TDM ≥ 15d (teicoplanin trough concentration) (≥ 15 days after first dose, all patients (N = 204), iv): 15.8[11.0,21.8] mg/L
patients having suboptimal concentrations (< 10 mg/L), TDM≥15d (≥ 15 days after first dose, all patients, 10 patients): 17.0%
Substance: Teicoplanin
